Test results reported in patent US20210009959A1, “METHODS FOR ENHANCING OSTEOGENIC DIFFERENTIATION USING VITAMIN D” (priority 2019, published 2021).

Experiments:
Format in all cases: cell-based
[1] = system: human adipose stem cells (hASCs); assay: Osteogenic gene expression of hASCs seeded on BCP20/80 scaffold; conditions: for RUNX2 gene expression, increase: 30 min incubation
Method: In one embodiment, a method of static culture of hASCs by pre-treatment with vitamin D3 (calcitriol) and attachment of hASCs to the scaffold used in one-step surgical procedure comprises the following steps. At one step, isolating hASCs as explained in FIG. 1. In an embodiment, the hASCs from three donors at passage 3 are used for further processing. As an optional step, the obtained hASCs are either or not incubated for a period of about 30 mins with low concentrated calcitriol of about 10 nM at room temperature.
At next step, the calcitriol treated hASCs are washed twice with Phosphate Buffered Saline (PBS) to remove calcitriol. Further, the washed hASCs are centrifuged and resuspended in Dulbecco's Minimum Essential Medium (DMEM) without any supplements. At another step, the resuspended cells are seeded on the scaffold and allowed to attach to the scaffolds for a period of about 30 minutes. At next step, the scaffolds with attached cells are transferred to 12-well plates with Costar® Transwell® containers (Corning Life Sciences, Lowell, Mass., USA) containing expansion medium (DMEM) supplemented with 10% Fetal Clone I (FCI), antibiotics (1% penicillin/streptomycin/fungizone (PSF)), 50 μM ascorbic acid (Merck, Darmstadt, Germany), and 10 mM β-glycerol phosphate (Merck, Darmstadt, Germany) (PLGA/β-TCP). At next step, the hASCs seeded scaffolds are incubated at 5% CO2 in a humidified incubator at predefined temperature of about 37° C. for a period of about 3 weeks.
Referring to FIGS. 8A to 8I, the effects of short and long calcitriol treatment on osteogenic gene expression of hASCs is disclosed, where hASCs are seeded in BCP scaffold. The stimulatory effect of 30 min calcitriol on osteogenic gene expression in hASCs seeded on BCP20/80 at day 21 is more noticeable than continuous calcitriol treatment. The 30 mins incubation with calcitriol increases the RUNX2 (early osteogenic marker) gene expression in hASCs by 3.6-fold after 2 weeks, and 5.7-fold after 3 weeks of culture compared to non-treated hASCs. FIGS. 8A to 8I exemplarily illustrate the effects of calcitriol treatment on osteogenic gene expression of hASCs.
The 30 minutes pre-treatment of hASCs with calcitriol increases VEGF189 gene expression, whereas in continuous calcitriol treatment, the VEGF189 gene expression reaches almost steady expression levels during the 3 weeks of culture. The VEGF189 gene expression in 30 minutes calcitriol pre-treated hASCs is increased by 1.5-fold at day 21, but it is decreased in continuous treatment by 0.6-fold compared to non-treated hASCs as shown in FIG. 8I.

[2] = system: human adipose stem cells (hASCs); assay: ALP staining using NBT/BCIP in hASCs; conditions: 30 min treatment; 2 and 3 weeks of culture; compared to continuous treatment
Description: Referring to FIG. 6, the effect of calcitriol treatment on ALP activity in hASCs by ALP staining using nitro blue tetrazolium chloride/5-bromo-4-chloro-3-indolyl phosphate (NBT/BCIP) is disclosed. […] The increase in ALP activity is confirmed by ALP staining after 14 days of culture. […] The cell distribution is confirmed by 4′,6-diamidino-2-phenylindole (DAPI) staining.

[3] = system: human adipose stem cells (hASCs); assay: Metabolic activity / cell proliferation of hASCs in 3D PLGA/β-TCP scaffold, dynamic (perfusion bioreactor) and static (flask) culture
Method: In one embodiment, dynamic culture of pre-treated hASCs with calcitriol, using the modified perfusion bioreactor comprises the following steps. In one embodiment, the scaffolds are 3D PLGA/β-TCP. The modified perfusion bioreactor […] comprises five scaffolds, loaded with a total of 70 ml of culture medium as shown in FIG. 2. At another step, 30 ml of the culture medium is replaced twice a week for a total period of two weeks. At another step, the culture medium in the modified perfusion bioreactor 200 is distributed to the five scaffolds with the flow rate of about 5 ml/min using the peristaltic pump 202.
In one embodiment, the method of static culture of pre-treated hASCs is continued in a flask bioreactor with the same volume of culture medium utilized in the dynamic culture. Further, the methods of culturing the hASCs are divided into different groups. In one embodiment, the methods of culturing of hASCs are divided into four groups such as, static culture of non-treated hASCs, static culture of pre-treated hASCs with calcitriol, dynamic culture of non-treated hASCs and dynamic culture of pre-treated hASCs with calcitriol.
Referring to FIG. 9, the effects of dynamic pre-treated/non-treated hASCs versus static pre-treated/non-treated hASCs on metabolic activity or cell proliferation of hASCs is disclosed, where the pre-treated hASCs are seeded in 3D PLGA/β-TCP scaffold. In one embodiment, the hASCs are pre-treated with or without 10 nM calcitriol for 30 minutes and cultured in the modified perfusion bioreactor 200 (dynamic culture) and flask bioreactor (static culture). […] Also, the culturing groups are compared and there is no significant difference between the groups. However, the 14 days of dynamic culture of both non-treated hASCs and pre-treated hASCs increases cell proliferation by 1.1-fold relative to 7 days of culture.
In addition, alamarBlue assay, ALP assay, ALP staining, analysis of osteogenic and angiogenic gene expression and related protein content to evaluate the synergistic effects of flow-induced shear stress using a modified perfusion bioreactor and calcitriol pre-treatment are used for the examinations.

[4] = continuous treatment, 3 weeks of culture

In the case of C=C1/C(=C\C=C2/CCC[C@]3(C)[C@@H]([C@H](C)CCCC(C)(C)O)CC[C@@H]23)C[C@@H](O)C[C@@H]1O [calcitriol, 1,25-dihydroxyvitamin D3], the ALP gene expression ([1]; 30 min calcitriol, BCP20/80) is reported as “upregulates”, the “RUNX2 gene expression, increase” value ([1]; after 2 weeks, vs non-treated hASCs) is reported as 3.6 fold and the “RUNX2 gene expression, increase” value ([1]; after 3 weeks, vs non-treated hASCs) is reported as 5.7 fold. For the same compound, the CYP24 gene expression ([1]; 30 min pre-treated cells) was “not expressed”, the Ki-67 gene expression ([1]; 30 min pre-treatment, 3 weeks of culture) was “decreases” and the VDR gene expression ([1]; 30 min pre-treatment, compared to continuous treatment, maximal stimulation at day 14) was “increases”. The “SPARC expression, increase” value ([1]; 30 min pre-treatment, day 14) was 2.1 fold, the “VEGF189 gene expression, increase” value ([1]; 30 min pre-treatment, day 21, vs non-treated hASCs) was 1.5 fold and the OPN expression ([1]; 30 min treatment, day 21) was “increases”. The CYP24 gene expression [1, 4] was “remarkably increases”, the Ki-67 gene expression [1, 4] was “no change” and the “RUNX2 expression, decrease” value ([1]; continuous treatment, after 2 weeks) was 0.81 fold. The “RUNX2 expression, increase” value ([1]; continuous treatment, after 3 weeks) was 2.4 fold, the OPN gene expression ([1]; continuous treatment, day 4) was “upregulates” and the “SPARC expression, decrease” value ([1]; continuous treatment, day 14) was 0.8 fold. For the same compound, the “VEGF189 gene expression, decrease” value ([1]; continuous treatment, day 21, vs non-treated hASCs) was 0.6 fold, the DMP1 gene expression ([1]; over about 3 weeks, treatment group not specified) was “gradual and insignificant increase” and the “ALP activity by ALP staining (NBT/BCIP)” value [2] was “notably increases”. The “cell proliferation, increase” value ([3]; dynamic culture of pre-treated hASCs, 14 days relative to 7 days of culture) was 1.1 fold, the “cell proliferation, increase” value ([3]; dynamic culture of pre-treated hASCs, 14 days, relative to the first day) was 10.8 fold and the “cell proliferation, increase” value ([3]; dynamic culture of pre-treated hASCs, after 7 days, relative to the first day) was 9.9 fold. For the same compound, the cell proliferation ([3]; perfusion culture of pre-treated vs perfusion culture of non-treated hASCs, after 7 and 14 days) was “slightly decelerates”, the “cell proliferation, increase” value ([3]; static culture of pre-treated hASCs (10 nM, 30 min), after 7 days, relative to the first day) was 10.6 fold and the “cell proliferation, increase” value ([3]; static culture of pre-treated hASCs, 14 days, relative to the first day) was 1.6 fold.
